This is an account of results in ChEMBL document CHEMBL5154681, “Small Amphiphilic Peptides: Activity Against a Broad Range of Drug-Resistant Bacteria and Structural Insight into Membranolytic Properties” (J Med Chem, 2022).

The test system of series [1] is Staphylococcus aureus. Put plainly: Antibacterial activity against methicillin resistant Staphylococcus aureus ATCC BAA-1556 incubated for 24 hrs by microtiter plate method. The settings on record: Staphylococcus aureus, ATCC BAA-1556, 24 h, read-out: MIC. It is filed as functional.
For series [2], the system named is Staphylococcus aureus. Put plainly: Antibacterial activity against Staphylococcus aureus ATCC 29213 incubated for 24 hrs by microtiter plate method. The settings on record: Staphylococcus aureus, ATCC 29213, read-out: MIC. It is filed as functional.
Series [3] concerns Escherichia coli. Nature of the series: Antibacterial activity against Escherichia coli ATCC 25922 incubated for 24 hrs by microtiter plate method. Format: functional. The settings on record: Escherichia coli.
The test system of another series is Enterococcus faecium. Put plainly: Antibacterial activity against vancomycin-resistant Enterococcus faecium ATCC 700221 incubated for 24 hrs by microtiter plate method. It is filed as functional.
Series [4] deals with Enterococcus faecalis. Put plainly: Antibacterial activity against vancomycin-resistant Enterococcus faecalis ATCC 51575 incubated for 24 hrs by microtiter plate method. It is filed as functional.
The subject of a further series is Streptococcus pneumoniae. Put plainly: Antibacterial activity against […] ATCC 49619 incubated for 24 hrs by microtiter plate method. Format: functional.
For a further series, the system named is Bacillus subtilis. Put plainly: Antibacterial activity against Bacillus subtilis ATCC 6633 incubated for 24 hrs by microtiter plate method. It is filed as functional.
Another series relates to Bacillus cereus. Put plainly: Antibacterial activity against Bacillus cereus ATCC 13061 incubated for 24 hrs by microtiter plate method. It is filed as functional.
Series [5] relates to Klebsiella pneumoniae. Put plainly: Antibacterial activity against Klebsiella pneumoniae ATCC 13883 […] incubated for 24 hrs by microtiter plate method. It is filed as functional.
The subject of series [6] is Klebsiella pneumoniae. Put plainly: Antibacterial activity against carbapenem-resistant Klebsiella pneumoniae ATCC BAA-2470 incubated for 24 hrs by microtiter plate method. It is filed as functional.
Series [7] concerns Staphylococcus aureus. Put plainly: Antibacterial activity against methicillin resistant Staphylococcus aureus ATCC BAA-1556 after 24 hrs in presence of 4.5 mM of KCl by microtiter plate method. Format: functional.
Series [8] relates to Escherichia coli. Put plainly: Antibacterial activity against Escherichia coli ATCC 25922 assessed as reduction in microbial growth after 24 hrs in presence of 6 mM of NH4Cl at by microtiter plate method. Format: functional.
Series [9] concerns Escherichia coli. Nature of the series: Antibacterial activity against Escherichia coli ATCC 25922 after 24 hrs in presence of 2 mM CaCl2 at by microtiter plate method. It is filed as functional.
Series [10] concerns Escherichia coli. Put plainly: Antibacterial activity against Escherichia coli ATCC 25922 after 24 hrs in presence of fetal bovine serum by microtiter plate method. It is filed as functional.
The nature of series [11]: Cytotoxicity against HEK293 assessed as cell viability at 50 ug/ml incubated for 24 hrs by microplate spectrophotometer analysis method relative to control. Format: toxicity, cell-based. As to conditions: human, HEK293 cells, at 50 µg/mL, read-out: Activity.
Series [12] relates to Lipid bilayer. Put plainly: Membrano-lytic effect in bacterial inner membrane mimic DOPC/DOPG (7:3) large unilamellar vesicles assessed as calcein leakage measured upto 100 mins for every 10 mins by multimode microplate reader assay. Format: cell membranes. As to conditions: dose 5-50 µg/ml, DDE = dose-dependent effect.
In series [13] the test system is Escherichia coli. Put plainly: Bactericidal activity against Escherichia coli ATCC BAA-2452 assessed as reduction of bacterial growth at 4 times MIC by counting formed colonies. It is filed as functional, organism-based. As to conditions: time <= 4.0 hrs, TDE = time-dependent effect.
For series [14], the system named is Staphylococcus aureus. Nature of the series: Bactericidal activity against methicillin resistant Staphylococcus aureus ATCC BAA-1556 assessed as reduction of bacterial growth at 4 times MIC by counting formed colonies. It is filed as functional, organism-based. As to conditions: time <= 4.0 hrs, TDE = time-dependent effect.
For series [15], the system named is Lipid bilayer. Nature of the series: Membrano-lytic effect in bacterial inner membrane mimic DOPC/DOPG (7:3) large unilamellar vesicles assessed as calcein leakage measured at 5 microg/ml, incubated for 30 mins by multimode microplate reader assay. As to conditions: dose 5.0 µg/ml. Format: cell membranes.
In series [16] the test system is Lipid bilayer. Put plainly: Membrano-lytic effect in bacterial inner membrane mimic DOPC/DOPG (7:3) large unilamellar vesicles assessed as calcein leakage measured at 50 microg/ml, incubated for 40 mins by multimode microplate reader assay. It is filed as cell membranes. The settings on record: dose 50.0 µg/ml.
Series [17] can be described thus: Proteolytic stability in human plasma at 100 uM incubated for 30 mins by Q-TOF LC/MS analysis relative to control. As to conditions: read-out: Stability. It is filed as ADME, cell-free.
Series [18] has as its system Lipid bilayer. Nature of the series: Induction of membrane disruption in bacterial inner membrane mimic DOPC/DOPG (7:3) large unilamellar vesicles assessed as decrease in particle size of liposome at 1:1 compound to lipid ratio measured after 90 mins by dynamic light scattering analysis. Format: cell membranes.
For series [19], the system named is Enterococcus faecalis. Nature of the series: Potency index, ratio of daptomycin MIC to test compound MIC for antibacterial activity against vancomycin resistant Enterococcus faecalis ATCC 51575. It is filed as functional.
Another series has as its system Cell membrane. Put plainly: Membrano-lytic effect in cytoplasmic membrane of Escherichia coli ATCC BAA-2452 assessed as disruption by measuring propidium iodide fluorescence incubated for 1 hr by FACscan flow cytometer analysis. The settings on record: DDE = dose-dependent effect.
Series [20] concerns Lipid bilayer. Nature of the series: Membrano-lytic effect in bacterial inner membrane mimic DOPC/DOPG (7:3) large unilamellar vesicles assessed as calcein leakage measured at 50 microg/ml, incubated for 50 mins by multimode microplate reader assay. It is filed as cell membranes. The settings on record: dose 50.0 µg/ml.

Broadly, the MIC is the smallest concentration in the dilution series that meets the test's criterion for growth inhibition.

Structures are written as SMILES. Converted amounts (≈) assume the structure as drawn. The source made the active and inactive calls. Square brackets hold non-standard residues; d marks the D form. Peptide text beside a SMILES is read from it. Dip = N[C@H](C(=O)O)C(c1ccccc1)c1ccccc1; 2Nal = N[C@@H](Cc1ccc2ccccc2c1)C(=O)O

In the case of `N=C(N)NCCC[C@@H]1NC(=O)[C@H](CCCNC(=N)N)NC(=O)[C@H](CCCNC(=N)N)NC(=O)[C@H](Cc2ccc3ccccc3c2)NC(=O)[C@H](Cc2ccc3ccccc3c2)NC(=O)[C@H](Cc2ccc3ccccc3c2)NC(=O)[C@H](CCCNC(=N)N)NC1=O` (cyclo(RRRR[2Nal][2Nal][2Nal])), the MIC was 3.1 µg/mL (≈ 2.55 µM) in the series with Staphylococcus aureus [1]; 3.1 µg/mL (≈ 2.55 µM) in the series with Staphylococcus aureus [2]; 25 µg/mL (≈ 20.6 µM) in the series with Escherichia coli [3] (ATCC 25922, 24 h, read-out: MIC); 3.1 µg/mL (≈ 2.55 µM) with Enterococcus faecium; 3.1 µg/mL (≈ 2.55 µM) with Enterococcus faecalis [4]; 25 µg/mL (≈ 20.6 µM) against Streptococcus pneumoniae. Moreover, the MIC came to 1.5 µg/mL (≈ 1.23 µM) against Bacillus subtilis; 3.1 µg/mL (≈ 2.55 µM) in the series with Bacillus cereus; 50 µg/mL (≈ 41.1 µM) in the series on Klebsiella pneumoniae [5]; 12.5 µg/mL (≈ 10.3 µM) against Klebsiella pneumoniae [6]; 3.1 µg/mL with Staphylococcus aureus [7]; 25 µg/mL with Escherichia coli [8]. Besides, the MIC in the series with Escherichia coli [9] is 25 µg/mL; with Escherichia coli [10] it was > 50 µg/mL. In addition, the viability at 24 h, 50 ug/ml in series [11] stood at 80%. The Activity result was “Dde” in the series on Lipid bilayer [12]; “Tde” with Escherichia coli [13]; “Tde” in the series with Staphylococcus aureus [14]; 30% in the series on Lipid bilayer [15]; 100% with Lipid bilayer [16]; “Dde” with Cell membrane. In series [17], the remaining at 0.5 h, 100 µM was 82%. Also, in the series with Lipid bilayer [18], the result was Active. In the series with Enterococcus faecalis [19], the Ratio was 2.
Regarding `N=C(N)NCCC[C@@H]1NC(=O)[C@H](CCCNC(=N)N)NC(=O)[C@H](CCCNC(=N)N)NC(=O)[C@H](C(c2ccccc2)c2ccccc2)NC(=O)[C@H](C(c2ccccc2)c2ccccc2)NC(=O)[C@H](C(c2ccccc2)c2ccccc2)NC(=O)[C@H](CCCNC(=N)N)NC1=O` (cyclo(RRRR[Dip][Dip][Dip])), the MIC was 3.1 µg/mL (≈ 2.39 µM) in the series on Staphylococcus aureus [1]; 3.1 µg/mL (≈ 2.39 µM) with Staphylococcus aureus [2]; 12.5 µg/mL (≈ 9.66 µM) with Escherichia coli [3] (ATCC 25922, read-out: MIC); 3.1 µg/mL (≈ 2.39 µM) against Enterococcus faecium; 6.2 µg/mL (≈ 4.79 µM) with Enterococcus faecalis [4]; 25 µg/mL (≈ 19.3 µM) against Streptococcus pneumoniae. Moreover, the MIC in the series with Bacillus subtilis came out at 1.5 µg/mL (≈ 1.16 µM); in the series on Bacillus cereus, 3.1 µg/mL (≈ 2.39 µM); in the series with Klebsiella pneumoniae [5], 50 µg/mL (≈ 38.6 µM); in the series with Klebsiella pneumoniae [6] it was 12.5 µg/mL (≈ 9.66 µM); in the series on Staphylococcus aureus [7] it was 3.1 µg/mL; in the series on Escherichia coli [8], 12.5 µg/mL. In addition, the MIC with Escherichia coli [9] was determined as 12.5 µg/mL; in the series on Escherichia coli [10], 50 µg/mL. Also, the viability at 24 h, 50 ug/ml in series [11] worked out at 80%. For the same molecule, the Activity result with Lipid bilayer [12] is “Dde”; with Escherichia coli [13], “Tde”; in the series on Staphylococcus aureus [14] it was “Tde”; in the series on Lipid bilayer [20] it was 100%; with Lipid bilayer [15] it was 30%; in the series with Cell membrane, “Dde”. In addition, in series [17], the remaining at 0.5 h, 100 µM was 86%. In the series with Lipid bilayer [18], the outcome was Active. Besides, the Ratio in the series with Enterococcus faecalis [19] came to 2.
